The target in one assay is T1, STAT6 (Homo sapiens, UniProt P42226).
T1 construct: These cells express endogenous STAT6; host or cells: HeLa LgBiT clone 4.14
T1 sequence (P42226 1-847): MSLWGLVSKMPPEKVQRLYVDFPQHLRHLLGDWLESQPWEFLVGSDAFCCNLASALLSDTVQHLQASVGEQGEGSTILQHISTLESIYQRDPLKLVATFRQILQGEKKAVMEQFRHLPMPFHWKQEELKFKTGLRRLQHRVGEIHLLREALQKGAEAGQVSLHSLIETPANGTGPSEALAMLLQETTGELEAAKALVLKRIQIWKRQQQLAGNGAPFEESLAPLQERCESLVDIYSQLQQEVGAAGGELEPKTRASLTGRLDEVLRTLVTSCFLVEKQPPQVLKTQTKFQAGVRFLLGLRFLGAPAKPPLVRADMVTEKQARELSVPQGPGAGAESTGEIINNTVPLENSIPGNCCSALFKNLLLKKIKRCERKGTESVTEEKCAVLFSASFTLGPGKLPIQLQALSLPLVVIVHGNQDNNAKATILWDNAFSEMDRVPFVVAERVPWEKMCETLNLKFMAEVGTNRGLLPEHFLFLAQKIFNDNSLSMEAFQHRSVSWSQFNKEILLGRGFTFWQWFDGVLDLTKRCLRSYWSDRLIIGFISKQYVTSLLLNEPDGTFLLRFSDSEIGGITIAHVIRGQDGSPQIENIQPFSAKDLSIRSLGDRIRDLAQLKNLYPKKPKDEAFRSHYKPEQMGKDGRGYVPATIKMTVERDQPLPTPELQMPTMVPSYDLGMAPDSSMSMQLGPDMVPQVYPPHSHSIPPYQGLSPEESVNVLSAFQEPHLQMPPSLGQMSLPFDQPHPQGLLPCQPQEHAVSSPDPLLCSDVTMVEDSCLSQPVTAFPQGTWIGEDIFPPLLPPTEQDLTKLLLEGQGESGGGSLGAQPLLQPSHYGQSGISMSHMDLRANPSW
Kind of assay: Stat6 Degrader Assay (HiBiT based, HeLa LgBiT clone 4.14). The assay is classed as cell-based. Particulars: HeLa LgBiT clone 4.14 HiBiT-STAT6, 4-24 h incubation; values given for compounds with >80% Emax; geometric mean; read-out: STAT6 degradation DC50. A digest of the protocol:
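HeLa LgBiT clone 4.14 cells with CRISPR HiBiT-tagged endogenous STAT6, 5000 cells/well, compound dosed then incubated 4-24 h at 37° C, 5% CO2. Nano-Glo substrate added, 0.5 h, luminescence read as non-degraded STAT6. Terfenadine 50 μM (cell kill) defines 100% degradation.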
For orientation: With HiBiT, luminescence reflects the tagged protein that the partner subunit can reach.

The test system of assay [1] is Eotaxin-3 release in human whole blood stimulated with IL-4. In words: Human Whole Blood Eotaxin-3 Assay (IL-4 stimulated eotaxin-3 release). The assay is classed as cell-based. Particulars: IL-4 stimulation, 48 h, values given for compounds with >80% Emax, geometric mean. A digest of the protocol: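 Lithium-heparin human whole blood preincubated 2 h at 37° C with 4-fold serially diluted compounds (0.5% DMSO), then stimulated with recombinant human IL-4 ([…]) for 48 h. Eotaxin-3 (CCL26) in supernatant quantified by MSD immunoassay.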

Turning to `CNc1cc(=O)n(-c2ccnc3c2cc([C@H](C)N2CC=C(c4c(C)cc(C(=O)N5CCC(CN6CCN(Cc7ccc8c(c7)n(C7CC7)c(=O)n8[C@@H]7CCC(=O)NC7=O)C[C@@H]6C)CC5)cc4F)CC2)n3C)cc1F` (single isomer, unassigned) [Example 3u120], the DC50 (commonly the midpoint of the concentration-degradation curve) on STAT6 was found to be 1 nM. In addition, in assay [1], it took 3.7 nM to reach a half-maximal effect (EC50).

Regarding `CNc1ccn(-c2ccnc3c2cc([C@H](C)N2CC=C(c4c(C)cc(C(=O)N5CCC(CN6CCN(Cc7cc8c(cc7F)N([C@@H]7CCC(=O)NC7=O)C(=O)C8(C)C)C[C@@H]6C)CC5)cc4F)CC2)n3C)c(=O)c1` (single isomer, unassigned) [Example 3u183], on STAT6, the DC50 was 5.9 nM. In addition, in assay [1], a half-maximal effect (EC50) was put at 8 nM.

As for `CNc1cc(=O)n(-c2ccnc3c2cc([C@H](C)N2CC=C(c4c(C)cc(C(=O)N5CCC(CN6CCN(Cc7ccc8c(c7)n(C7CC7)c(=O)n8[C@H]7CCC(=O)NC7=O)C[C@@H]6C)CC5)cc4F)CC2)n3C)cc1F` (single isomer, unassigned) [Example 3u119], the DC50 on STAT6 was found to be 2.1 nM. A half-maximal response in assay [1] (EC50) required 2.2 nM.

Consider `CNc1ccn(-c2ccnc3c2cc(CN2CCC(c4c(F)cc(C(=O)N5CCC(CN6CCN(Cc7ccc8c(c7)C(C)(C)C(=O)N8[C@H]7CCC(=O)NC7=O)CC6)CC5)cc4F)CC2)n3C)c(=O)c1` (single isomer, unassigned) [Example 3u17], for which the DC50 on STAT6 was 6 nM. Moreover, a half-maximal response in assay [1] (EC50) required 6.3 nM.

`CNc1ccn(-c2ccnc3c2cc([C@H](C)N2CC=C(c4c(C)cc(C(=O)N5CCC(CN6CCN(c7ccc8c(c7)C(C)(C)C(=O)N8C7CCC(=O)NC7=O)CC6)CC5)cc4F)CC2)n3C)c(=O)c1` (stereo partly drawn) [Example 3u304, 3-(5-(4-((1-(3-fluoro-5-methyl-4-(1-((S)-1-(1-methyl-4-(4-(methylamino)-2-oxopyridin-1 (2H)-yl)-1H-pyrrolo[2,3-b]pyridin-2-yl)ethyl)-1,2,3,6-tetrahydropyridin-4-yl)benzoyl)piperidin-4-yl)methyl)piperazin-1-yl)-3,3-dimethyl-2-oxoindolin-1-yl)piperidine-2,6-dione]: the DC50 on STAT6 was found to be 6.5 nM. The EC50 (commonly the concentration that produces a half-maximal response) in assay [1] came to 10.8 nM.

With `CNc1ccn(-c2ccnc3c2cc([C@H](C)N2CC=C(c4c(C)cc(C(=O)N5CCC(CN6CCN(c7cc8c(cc7F)n(C7CCC(=O)NC7=O)c(=O)n8C)CC6)CC5)cc4F)CC2)n3C)c(=O)c1` (stereo partly drawn) [Example 3u310, 3-(6-fluoro-5-(4-((1-(3-fluoro-5-methyl-4-(1-((S)-1-(1-methyl-4-(4-(methylamino)-2-oxopyridin-1 (2H)-yl)-1H-pyrrolo[2,3-b]pyridin-2-yl)ethyl)-1,2,3,6-tetrahydropyridin-4-yl)benzoyl)-piperidin-4-yl)methyl)piperazin-1-yl)-3-methyl-2-oxo-2,3-dihydro-1H-benzo[d]imidazol-1-yl)-piperidine-2,6-dione], the DC50 on STAT6 was 0.7 nM. The EC50 in assay [1] worked out at 0.4 nM.

With `Cc1cc(C(=O)N2CCC(CN3CCN(Cc4ccc5c(c4)n(C)c(=O)n5[C@@H]4CCC(=O)NC4=O)C[C@@H]3C)CC2)cc(F)c1C1=CCN(Cc2cc3c(-n4ccc5c(c4=O)CCN5)ccnc3n2C)CC1` (single isomer, unassigned) [Example 3u25], at STAT6, the 50% degradation concentration (DC50) came out at 1.3 nM. In addition, in assay [1], a half-maximal effect (EC50) was put at 1 nM.

For `CNc1ccn(-c2ccnc3c2cc([C@H](C)N2CCC(c4c(C)cc(C(=O)N5CCC(CN6CCN(Cc7ccc8c(c7)n(C7CC7)c(=O)n8[C@H]7CCC(=O)NC7=O)C[C@@H]6C)CC5)cc4F)CC2)n3C)c(=O)c1` (single isomer, unassigned) [Example 3u198], on STAT6, the 50% degradation concentration (DC50) stood at 1.2 nM. In addition, the EC50 in assay [1] was found to be 1.6 nM.

Consider `Cc1cc(C(=O)N2CCC(CN3CCN(Cc4ccc5c(c4)n(C)c(=O)n5C4CCC(=O)NC4=O)C[C@@H]3C)CC2)cc(F)c1C1=CCN([C@@H](C)c2cc3c(-n4cc(F)c5c(c4=O)CCN5)ccnc3n2C)CC1` (stereo partly drawn) [Example 3u109, 3-(5-(((S)-4-((1-(3-fluoro-4-(1-((S)-1-(4-(7-fluoro-4-oxo-1,2,3,4-tetrahydro-5H-pyrrolo[3,2-c]pyridin-5-yl)-1-methyl-1H-pyrrolo[2,3-b]pyridin-2-yl)ethyl)-1,2,3,6-tetrahydropyridin-4-yl)-5-methylbenzoyl)piperidin-4-yl)methyl)-3-methylpiperazin-1-yl)methyl)-3-methyl-2-oxo-2,3-dihydro-1H-benzo[d]imidazol-1-yl)piperidine-2,6-dione], for which the 50% degradation concentration (DC50) on STAT6 is 1.4 nM. This compound also displayed an EC50 in assay [1] of 2.8 nM.

For the compound `CNc1ccn(-c2ccnc3c2cc(CN2CCC(c4c(F)cc(C(=O)N5CCC(CN6CCN(Cc7cc8c(cc7F)N([C@@H]7CCC(=O)NC7=O)C(=O)C87CC7)CC6)CC5)cc4F)CC2)n3C)c(=O)c1` (single isomer, unassigned) [Example 3u44], the DC50 at STAT6 was determined as 10.2 nM. In assay [1], this compound displayed an EC50 of 10.1 nM.

Regarding `Cc1cc(C(=O)N2CCC(CN3CCN(Cc4cc5c(cc4F)n(C4CCC(=O)NC4=O)c(=O)n5C)CC3)CC2)cc(F)c1C1=CCN([C@@H](C)c2cc3c(-n4ccc5c(c4=O)CCN5)ccnc3n2C)CC1` (stereo partly drawn) [Example 3u74, 3-(6-fluoro-5-((4-((1-(3-fluoro-5-methyl-4-(1-((S)-1-(1-methyl-4-(4-oxo-1,2,3,4-tetrahydro-5H-pyrrolo[3,2-c]pyridin-5-yl)-1H-pyrrolo[2,3-b]pyridin-2-yl)ethyl)-1,2,3,6-tetrahydro-pyridin-4-yl)benzoyl)piperidin-4-yl)methyl)piperazin-1-yl)methyl)-3-methyl-2-oxo-2,3-dihydro-1H-benzo[d]imidazol-1-yl)piperidine-2,6-dione], the DC50 on STAT6 was 0.6 nM. Besides, in assay [1], the half-maximal effective concentration (EC50) was determined as 1.1 nM.

Regarding `CNc1ccn(-c2ccnc3c2cc(CN2CCC(c4c(F)cc(C(=O)N5CCC(CN6CCN(Cc7ccc8c(c7)n(C7CC7)c(=O)n8[C@@H]7CCC(=O)NC7=O)C[C@@H]6C)CC5)cc4F)CC2)n3C)c(=O)c1` (single isomer, unassigned) [Example 3u218], the DC50 at STAT6 stood at 2.6 nM. The same compound had an EC50 in assay [1] of 0.8 nM.

In the case of `CNc1cc(=O)n(-c2ccnc3c2cc([C@H](C)N2CC=C(c4c(C)cc(C(=O)N(C)c5ccc(N6CCN(Cc7ccc8c(c7)C7(CC7)C(=O)N8C7CCC(=O)NC7=O)CC6)nc5)cc4F)CC2)n3C)cc1F` (stereo partly drawn) [Example 3u239, N-(6-(4-((1′-(2,6-dioxopiperidin-3-yl)-2′-oxospiro[cyclopropane-1,3′-indolin]-5′-yl)-methyl)piperazin-1-yl)pyridin-3-yl)-3-fluoro-4-(1-((S)-1-(4-(5-fluoro-4-(methylamino)-2-oxopyridin-1 (2H)-yl)-1-methyl-1H-pyrrolo[2,3-b]pyridin-2-yl)ethyl)-1,2,3,6-tetrahydropyridin-4-yl)-N,5-dimethyl-benzamide], the DC50 at STAT6 came out at 0.1 nM. The EC50 in assay [1] was found to be 1.2 nM.

As for `CNc1ccn(-c2ccnc3c2cc([C@H](C)N2CC=C(c4c(C)cc(C(=O)N5CCC(CN6CCN(Cc7ccc8c(c7)C7(CC7)C(=O)N8C7CCC(=O)NC7=O)C[C@@H]6C)CC5)cc4F)CC2)n3C)c(=O)c1` (mixture of isomers) [Example 3u190, 3-(5′-(((S)-4-((1-(3-fluoro-5-methyl-4-(1-((S)-1-(1-methyl-4-(4-(methylamino)-2-oxopyridin-1 (2H)-yl)-1H-pyrrolo[2,3-b]pyridin-2-yl)ethyl)-1,2,3,6-tetrahydropyridin-4-yl)benzoyl)piperidin-4-yl)methyl)-3-methylpiperazin-1-yl)methyl)-2′-oxospiro[cyclopropane-1,3′-indolin]-1′-yl)piperidine-2,6-dione], the DC50 at STAT6 is 0.5 nM. The compound also yielded an EC50 in assay [1] of 0.9 nM.
